BigSolDB 2.1

Settings: in water

SMILES: N#CN=C(N)N
- solubility (mole fraction) (278.15 K): 0.00303
- solubility (mole fraction) (283.15 K): 0.00387
- solubility (mole fraction) (288.15 K): 0.00526
- solubility (mole fraction) (293.15 K): 0.00707
- solubility (mole fraction) (298.15 K): 0.00891
- solubility (mole fraction) (303.15 K): 0.0114
- solubility (mole fraction) (308.15 K): 0.0141
- solubility (mole fraction) (313.15 K): 0.0172
- solubility (mole fraction) (318.15 K): 0.021
- solubility (mole fraction) (323.15 K): 0.0265
